Experimental data reported in ChEMBL document CHEMBL2434896, “Carbonic anhydrase inhibitors. Synthesis of heterocyclic 4-substituted pyridine-3-sulfonamide derivatives and their inhibition of the human cytosolic isozymes I and II and transmembrane tumor-associated isozymes IX and XII” (Eur J Med Chem, 2013).
Activity calls are given as the source filed them. No cut-off for these calls is given here.

Experiments:
SK-MEL-28 = assay: Growth inhibition of human SK-MEL-28 cells at 10 uM after 48 hrs by sulforhodamine B assay; format: functional, cell-based
UO-31 = assay: Growth inhibition of human UO31 cells at 10 uM after 48 hrs by sulforhodamine B assay; format: functional; conditions: UO-31, 48 h, read-out: GI
NCI-H322M = assay: Growth inhibition of human NCI-H322M cells at 10 uM after 48 hrs by sulforhodamine B assay; format: functional; conditions: read-out: GI
RPMI-8226 = assay: Growth inhibition of human RPMI8226 cells at 10 uM after 48 hrs by sulforhodamine B assay; format: functional; conditions: RPMI-8226, 48 h, read-out: GI
SK-MEL-2 = assay: Growth inhibition of human SK-MEL-2 cells at 10 uM after 48 hrs by sulforhodamine B assay; format: functional; conditions: SK-MEL-2, 48 h, read-out: GI
DU-145 = assay: Growth inhibition of human DU145 cells at 10 uM after 48 hrs by sulforhodamine B assay; format: functional; conditions: DU-145, 48 h, read-out: GI
HOP-62 = assay: Growth inhibition of human HOP62 cells at 10 uM after 48 hrs by sulforhodamine B assay; format: functional; conditions: HOP-62, 48 h, read-out: GI
Hs-578T = assay: Growth inhibition of human Hs 578T cells at 10 uM after 48 hrs by sulforhodamine B assay; format: functional
NCI-H23 = assay: Growth inhibition of human NCI-H23 cells at 10 uM after 48 hrs by sulforhodamine B assay; format: functional; conditions: NCI-H23, 48 h, read-out: GI
Malme-3M = assay: Growth inhibition of human MALME-3M cells at 10 uM after 48 hrs by sulforhodamine B assay; format: functional; conditions: read-out: GI
SF-268 = assay: Growth inhibition of human SF268 cells at 10 uM after 48 hrs by sulforhodamine B assay; format: functional; conditions: SF-268, 48 h, read-out: GI
SK-MEL-5 = assay: Growth inhibition of human SK-MEL-5 cells at 10 uM after 48 hrs by sulforhodamine B assay; format: functional; conditions: SK-MEL-5, 48 h, read-out: GI
SNB-19 = assay: Growth inhibition of human SNB19 cells at 10 uM after 48 hrs by sulforhodamine B assay; format: functional; conditions: SNB-19, 48 h, read-out: GI
MDA-MB-231 = assay: Growth inhibition of human MDA-MB-231 cells at 10 uM after 48 hrs by sulforhodamine B assay; format: functional; conditions: MDA-MB-231, 48 h, read-out: GI
786-0 = assay: Growth inhibition of human 786-0 cells at 10 uM after 48 hrs by sulforhodamine B assay; format: functional; conditions: 786-0, 48 h, read-out: GI
MOLT-4 = assay: Growth inhibition of human MOLT4 cells at 10 uM after 48 hrs by sulforhodamine B assay; format: functional; conditions: MOLT-4, 48 h, read-out: GI
LOX IMVI = assay: Growth inhibition of human LOXIMVI cells at 10 uM after 48 hrs by sulforhodamine B assay; format: functional; conditions: read-out: GI
HT-29 = assay: Growth inhibition of human HT-29 cells at 10 uM after 48 hrs by sulforhodamine B assay; format: functional; conditions: HT-29, 48 h, read-out: GI
RXF 393 = assay: Growth inhibition of human RXF393 cells at 10 uM after 48 hrs by sulforhodamine B assay; format: functional; conditions: RXF 393, 48 h, read-out: GI
NCI-H460 = assay: Growth inhibition of human NCI-H460 cells at 10 uM after 48 hrs by sulforhodamine B assay; format: functional; conditions: NCI-H460, 48 h, read-out: GI
TK-10 = assay: Growth inhibition of human TK10 cells at 10 uM after 48 hrs by sulforhodamine B assay; format: functional; conditions: TK-10, 48 h, read-out: GI
BT-549 = assay: Growth inhibition of human BT549 cells at 10 uM after 48 hrs by sulforhodamine B assay; format: functional; conditions: BT-549, 48 h, read-out: GI
HCT-15 = assay: Growth inhibition of human HCT15 cells at 10 uM after 48 hrs by sulforhodamine B assay; format: functional; conditions: HCT-15, 48 h, read-out: GI
ACHN = assay: Growth inhibition of human ACHN cells at 10 uM after 48 hrs by sulforhodamine B assay; format: functional; conditions: read-out: GI
OVCAR-4 = assay: Growth inhibition of human OVCAR4 cells at 10 uM after 48 hrs by sulforhodamine B assay; format: functional; conditions: OVCAR-4, 48 h, read-out: GI
T47D = assay: Growth inhibition of human T47D cells at 10 uM after 48 hrs by sulforhodamine B assay; format: functional; conditions: read-out: GI
SR = assay: Growth inhibition of human SR cells at 10 uM after 48 hrs by sulforhodamine B assay; format: functional; conditions: read-out: GI
CCRF-CEM = assay: Growth inhibition of human CCRF-CEM cells at 10 uM after 48 hrs by sulforhodamine B assay; format: functional; conditions: read-out: GI
K562 = assay: Growth inhibition of human K562 cells at 10 uM after 48 hrs by sulforhodamine B assay; format: functional; conditions: K562, 48 h, read-out: GI
M14 = assay: Growth inhibition of human M14 cells at 10 uM after 48 hrs by sulforhodamine B assay; format: functional; conditions: M14, 48 h, read-out: GI
SN12C = assay: Growth inhibition of human SN12C cells at 10 uM after 48 hrs by sulforhodamine B assay; format: functional; conditions: read-out: GI
SK-OV-3 = assay: Growth inhibition of human SKOV3 cells at 10 uM after 48 hrs by sulforhodamine B assay; format: functional; conditions: SK-OV-3, 48 h, read-out: GI
SW-620 = assay: Growth inhibition of human SW620 cells at 10 uM after 48 hrs by sulforhodamine B assay; format: functional; conditions: SW-620, 48 h, read-out: GI
SF-295 = assay: Growth inhibition of human SF295 cells at 10 uM after 48 hrs by sulforhodamine B assay; format: functional; conditions: SF-295, 48 h, read-out: GI
PC-3 = assay: Growth inhibition of human PC3 cells at 10 uM after 48 hrs by sulforhodamine B assay; format: functional; conditions: PC-3, 48 h, read-out: GI
UACC-62 = assay: Growth inhibition of human UACC62 cells at 10 uM after 48 hrs by sulforhodamine B assay; format: functional; conditions: UACC-62, 48 h, read-out: GI
COLO 205 = assay: Growth inhibition of human COLO205 cells at 10 uM after 48 hrs by sulforhodamine B assay; format: functional
NCI-H522 = assay: Growth inhibition of human NCI-H522 cells at 10 uM after 48 hrs by sulforhodamine B assay; format: functional; conditions: NCI-H522, 48 h, read-out: GI
OVCAR-5 = assay: Growth inhibition of human OVCAR5 cells at 10 uM after 48 hrs by sulforhodamine B assay; format: functional; conditions: OVCAR-5, 48 h, read-out: GI
HCT-116 = assay: Growth inhibition of human HCT116 cells at 10 uM after 48 hrs by sulforhodamine B assay; format: functional; conditions: HCT-116, 48 h, read-out: GI

NS(=O)(=O)c1cnccc1N1CCN(c2ccc(Cl)c(Cl)c2)CC1
growth inhibition (GI) (SK-MEL-28): inactive
inhibition of growth at 10 µM (UO-31): 31%
inhibition of growth at 10 µM (NCI-H322M): 18%
inhibition of growth at 10 µM (RPMI-8226): 47%
inhibition of growth at 10 µM (SK-MEL-2): 16%
inhibition of growth at 10 µM (DU-145): 7%
inhibition of growth at 10 µM (HOP-62): 1%
growth inhibition (GI) (Hs-578T): inactive
inhibition of growth at 10 µM (NCI-H23): 33%
inhibition of growth at 10 µM (Malme-3M): 24%
inhibition of growth at 10 µM (SF-268): 2%
inhibition of growth at 10 µM (SK-MEL-5): 89%
inhibition of growth at 10 µM (SNB-19): 5%
inhibition of growth at 10 µM (MDA-MB-231): 21%
inhibition of growth at 10 µM (786-0): 15%
inhibition of growth at 10 µM (MOLT-4): 39%
inhibition of growth at 10 µM (LOX IMVI): 19%
inhibition of growth at 10 µM (HT-29): 29%
inhibition of growth at 10 µM (RXF 393): 8%
inhibition of growth at 10 µM (NCI-H460): 16%
inhibition of growth at 10 µM (TK-10): 9%
inhibition of growth at 10 µM (BT-549): 27%
inhibition of growth at 10 µM (HCT-15): 27%
inhibition of growth at 10 µM (ACHN): 24%
inhibition of growth at 10 µM (OVCAR-4): 65%
inhibition of growth at 10 µM (T47D): 72%
inhibition of growth at 10 µM (SR): 35%
inhibition of growth at 10 µM (CCRF-CEM): 47%
inhibition of growth at 10 µM (K562): 65%
inhibition of growth at 10 µM (M14): 22%
inhibition of growth at 10 µM (SN12C): 17%
inhibition of growth at 10 µM (SK-OV-3): 8%
inhibition of growth at 10 µM (SW-620): 3%
inhibition of growth at 10 µM (SF-295): 41%
inhibition of growth at 10 µM (PC-3): 35%
inhibition of growth at 10 µM (UACC-62): 38%
growth inhibition (GI) (COLO 205): inactive
inhibition of growth at 10 µM (NCI-H522): 43%
inhibition of growth at 10 µM (OVCAR-5): 1%
inhibition of growth at 10 µM (HCT-116): 35%
